# From US20240196885A1, “INSECT PEST BAIT COMPOSITION WITH ISO[…] METHOD FOR CONTROLLING INSECT PESTS” (SYNGENTA CROP PROTECTION AG, priority 2021, published 2024)
# Assays:
# Type in all cases: in vivo
# [1] = test system: Reticulitermes santonensis; test: Termite worker knockdown and mortality after exposure to filter paper bait
# Experimental: (§1) Bait preparation. isocyloseram was applied dissolved in acetone to the appropriate insect diet such that the desired a.i. loading was delivered in the diet after the acetone had evaporated. • House fly—granulated sugar • Termites—filter paper • Darkling beetle—oat flakes
# (§2) In a suitable arena, 10 insects of each species were exposed to 1 g of the solid baits. Baits were presented in such a way as to minimise the contact exposure. Three replicates of each treatment and species were conducted.
# (§3) Insect knockdown was assessed one and three hours after exposure, and mortality after 24 and 48 and 168 hours.
# Musca domestica = test: Adult house fly knockdown and mortality after exposure to a sugar bait
# Experimental: as §1, §2, §3
# Darkling beetle adults = test: Darkling beetle adult knockdown and mortality after exposure to oat flake bait; conditions: for Mean % knockdown or mortality: adults
# Experimental: as §1, §2, §3
# Darkling beetle larvae [2] = test: Darkling beetle larval knockdown and mortality after exposure to oat flake bait
# Experimental: as §1, §2, §3
# Darkling beetle larvae [3] = test: as above; conditions: larval stage, 100 ppm, after seven days
# [4] = test system: Atta bisphaerica (leaf cutter ant); test: Field test for control of leaf cutter ant with pelleted citrus pulp bait; conditions: for control efficiency after opening the nests in the excavation of the anthills: excavation at 155 DAA, modified Abbott formula; for ceased activity in leaf cutting by ants: ninety days after application
# Experimental: Bait preparation. Blends of citrus pulp and refined soybean oil (95/5 w/w %) were sprayed with an aqueous isocycloseram suspension concentrate (SC) such as […]™ (Syngenta Agro S.A.), further blended and pelletized. Bait pellets or granules having an isocycloseram a.i. loading of 0.05, 0.1, 0.2 and 0.3%, respectively, were prepared.
# The field test for the control of Atta bisphaerica (leaf cutter ant) was conducted with the pelleted isocycloseram citrus pulp bait. The experimental design was completely randomized, with fourteen treatments and 10 replications, following the norms, considering an anthill as repetition. The treatments used were: isocyloseram −0.05% at doses of 6, 10 and 12 g/m^2, isocyloseram […] 0.1% at doses of 6, 10 and 12 g/m^2, isocyloseram −0.2% at doses of 6, 10 and 12 g/m^2, isocyloseram −0.3% at doses of 6, 10 and 12 g/m^2, A commercial standard Mirex-S (sulfluramid) at a dose of 10 g/m^2 and a control (Placebo); commercial product dosages per m^2 of loose earth. The evaluations with 1, 2, 3 and 7 DAA (days after application) included the loading rate parameters (%) (i.e. the % bait applied that is carried into the ant nest), return rate (%) (i.e. the % bait rejected by the colony) and intoxicated ants. As 1, 2, 3, 7, 15, 28, 60, 90, 118 and 155 DAA, the ground removal parameters (%) and leaf cutting and anthill excavation at 155 DAA.
# The application of the products was carried out manually, with the aid of a dosing cup, near the scouts and trails of the anthills. The results obtained were submitted to variance analysis, compared by the Scott-Knott test (p≤0.05) and corrected by the modified Abbott formula for control calculation.
# [5] = test system: Agrotis ypsilon (Greasy cutworm); test: Protection of corn seedlings from Agrotis ypsilon larvae in field arenas (bait, foliar spray, seed treatment)
# Experimental: Trial layout: Arenas of 4 square metres were created in a field with 20 cm high plastic walls to prevent escape of larvae and influx of predators but left to the open air. 3 replicates per trearment were set up. Corn (variety Hightech 2031, conventional non-Bt) was planted at the rate of 30 seeds per arena.
# Application method 1: For seed treatment, the seeds were treated with aqueous 40% isocycloseram formulation, such as […]™ (Syngenta Agro S.A.), one day before planting using a standard seed treatment water slurry volume of 50 ml/kg of seed. Four rates of isocycloseram seed treatment were tested 0.3, 0.6, 1.3 and 2.5 mg/seed.
# Application method 2: For bait application, dried cobs of maize corn were ground after removal of the seeds to form a coarse granular “corn grit” bait carrier. The corn grit was spread out on a plastic sheet and sprayed with a 40% SC aqueous formulation of isocycloseram mixed with water at the rates of 15, 30 and 60 grams of isocycloseram per 70 kg of corn grit. The baits were then mixed homogeneously and spread by hand in the evening at a rate of 70 kg/ha (7 gr./sqm, or 28 gr./plot) evenly over the soil surface. This was done 4 days after planting, just before emergence of the corn to attract and kill the cutworms at night.
# Application method 3: For foliar sprays, a standard hand-held spray-boom with flat-fan nozzles at 600 I/ha was used. The spray was made 1 day after release of the Greasy cutworm larvae at the 2 leaf stage (BBCH 12) of the corn. Three rates were used 30, 60 and 90 grams isocyclseram per hectare
# Two check lots were included—both untreated, one with infestation and one without infestation.
# Artificial infestation: Laboratory-reared Agrotis ypsilon (Greasy cutworm) larvae at the L5 stage were released into the arenas at a rate of 30 larvae per arena (1 larva per plant) in the morning. This infestation was made Infest 30 L5 larvae into each arena in the morning (1 larva per plant) approx 3 days after seeding just as corn is germinating. Make the application 8-24 hours later.
# Assessment: The number of damaged plants per plot was measured at 21 days after the last application (the foliar spray).
# [6] = test system: German cockroaches, Blattella germanica; test: Cockroach peanut butter bait: donor mortality and secondary kill of recipients; conditions: for Recipient % mortality: recipients exposed to donors of 1% bait, not to the bait
# Experimental: Isocycloseram was incorporated into the peanut-butter base by mixing 0.5 ml of a 10000 ppm (1%) solution of the compound in acetone into 0.5 g of peanut butter. The mixture was left in a fume cupboard for 24 hours to allow the acetone to evaporate, leaving […] of compound in 0.5 g of peanut butter, equivalent to 10000 ppm.
# Five adult male and five non-gravid adult female German cockroaches, Blattella germanica, were marked with a dot of white paint, to identify them, and placed into a plastic arena approximately 20 cm in diameter. Also placed in each arena was a simple harbourage constructed from concertinaed card and a water source. After the cockroaches had acclimatised for 24 hours a 15 ml glass vial containing 0.5 g of the treated peanut butter bait was added.
# After 48 hours the glass vial containing the bait was removed, and an assessment of the cockroach mortality was made. Five adult male and five non-gravid adult female German cockroaches, Blattella germanica, were added to the arena, leaving any dead or alive cockroaches with the white paint mark in the arena.
# Mortality of both the marked and unmarked cockroaches was made after 24 and 96 hours.
# [7] = test system: Agrotis ypsilon (Greasy cutworm); test: Protection of corn seedlings from Agrotis ypsilon larvae in field arenas (bait, foliar spray, seed treatment); remark: listed apart in the source
# [8] = 0.1% in oat flake bait, 3 hours
# [9] = 0.1% in oat flake bait, 24 hours
# [10] = 0.1% in oat flake bait, 48 hours
# [11] = 0.1% in oat flake bait, 168 hours
# [12] = 1% in oat flake bait, 168 hours
compound,measurement,setting,value
"CCN1OCC(NC(=O)c2ccc(C3=NOC(c4cc(Cl)c(F)c(Cl)c4)(C(F)(F)F)C3)cc2C)C1=O (centres unmarked) [isocyloseram, Isocycloseram]",Mean % knockdown or mortality,"[1]; 0.10% in filter paper bait, 1 hour",0%
same,Mean % knockdown or mortality,"[1]; 0.10% in filter paper bait, 3 hours",0%
same,Mean % knockdown or mortality,"[1]; 0.10% in filter paper bait, 24 hours",100%
same,Mean % knockdown or mortality,"[1]; 0.10% in filter paper bait, 48 hours",100%
same,Mean % knockdown or mortality,"[1]; 1% in filter paper bait, 1 hour",0%
same,Mean % knockdown or mortality,"[1]; 1% in filter paper bait, 3 hours",7%
same,Mean % knockdown or mortality,"[1]; 1% in filter paper bait, 24 hours",100%
same,Mean % knockdown or mortality,"[1]; 1% in filter paper bait, 48 hours",100%
same,Mean % knockdown or mortality,"Musca domestica; 0.10% in sugar bait, 1 hour",0%
same,Mean % knockdown or mortality,"Musca domestica; 0.10% in sugar bait, 3 hours",57%
same,Mean % knockdown or mortality,"Musca domestica; 0.10% in sugar bait, 24 hours",100%
same,Mean % knockdown or mortality,"Musca domestica; 1% in sugar bait, 1 hour",0%
same,Mean % knockdown or mortality,"Musca domestica; 1% in sugar bait, 3 hours",97%
same,Mean % knockdown or mortality,"Musca domestica; 1% in sugar bait, 24 hours",100%
same,mortality,"Darkling beetle adults; adult stage, 100 ppm, after seven days",100%
same,Mean % knockdown or mortality,"Darkling beetle adults; 0.1% in oat flake bait, 1 hour",0%
same,Mean % knockdown or mortality,Darkling beetle adults; [8],0%
same,Mean % knockdown or mortality,Darkling beetle adults; [9],0%
same,Mean % knockdown or mortality,Darkling beetle adults; [10],3%
same,Mean % knockdown or mortality,Darkling beetle adults; [11],7%
same,Mean % knockdown or mortality,"Darkling beetle adults; 1% in oat flake bait, 1 hour",0%
same,Mean % knockdown or mortality,"Darkling beetle adults; 1% in oat flake bait, 3 hours",0%
same,Mean % knockdown or mortality,"Darkling beetle adults; 1% in oat flake bait, 24 hours",93%
same,Mean % knockdown or mortality,"Darkling beetle adults; 1% in oat flake bait, 48 hours",97%
same,Mean % knockdown or mortality,Darkling beetle adults; [12],100%
same,Mean % knockdown or mortality,"Darkling beetle larvae [2]; 0.1% in oat flake bait, 1 hour",0%
same,Mean % knockdown or mortality,Darkling beetle larvae [2]; [8],0%
same,Mean % knockdown or mortality,Darkling beetle larvae [2]; [9],0%
same,Mean % knockdown or mortality,Darkling beetle larvae [2]; [10],3%
same,Mean % knockdown or mortality,Darkling beetle larvae [2]; [11],23%
same,Mean % knockdown or mortality,"Darkling beetle larvae [2]; 1% in oat flake bait, 1 hour",0%
same,Mean % knockdown or mortality,"Darkling beetle larvae [2]; 1% in oat flake bait, 3 hours",23%
same,Mean % knockdown or mortality,"Darkling beetle larvae [2]; 1% in oat flake bait, 24 hours",80%
same,Mean % knockdown or mortality,"Darkling beetle larvae [2]; 1% in oat flake bait, 48 hours",83%
same,Mean % knockdown or mortality,Darkling beetle larvae [2]; [12],100%
same,mortality,Darkling beetle larvae [3],100%
same,control efficiency after opening the nests in the excavation of the anthills,[4]; 0.2% bait (10 and 12 g),higher than 84%
same,control efficiency after opening the nests in the excavation of the anthills,"[4]; 0.3% bait (6, 10 and 12 g)",higher than 84%
same,response rate as a function of the time of intoxication,[4]; first three days after application of bait,87.5%
same,ceased activity in leaf cutting by ants,[4]; 0.1% bait (12 g),100%
same,ceased activity in leaf cutting by ants,"[4]; 0.2% bait (6, 10 and 12 g)",100%
same,ceased activity in leaf cutting by ants,"[4]; 0.3% bait (6, 10 and 12 g)",100%
same,response rate as a function of the time of intoxication,[4]; seven days after bait application,100%
same,average (ground) removal,[4]; twenty-eight days after treatment,less than 5%
same,% reduction of corn damage 22 d after infestation,"[5]; Corn Grit Bait 0.42 gai/kg bait, equivalent 30 gai/ha",94%
same,% reduction of corn damage 22 d after infestation,"[5]; Corn Grit Bait 0.63 gai/kg bait, equivalent 60 gai/ha",94%
same,% reduction of corn damage 22 d after infestation,"[5]; Corn grit Bait 0.21 gai/kg bait, equivalent 15 gai/ha",87%
same,% reduction of corn damage 22 d after infestation,[5]; Foliar spray 30 gai/ha,37%
same,% reduction of corn damage 22 d after infestation,[5]; Foliar spray 60 gai/ha,46%
same,% reduction of corn damage 22 d after infestation,[5]; Foliar spray 90 gai/ha,74%
same,% reduction of corn damage 22 d after infestation,"[5]; Seed treatment 0.3 mg ai/seed, equivalent 18 gai/ha",0%
same,% reduction of corn damage 22 d after infestation,"[5]; Seed treatment 0.6 mg ai/seed, equivalent 36 gai/ha",2%
same,% reduction of corn damage 22 d after infestation,"[5]; Seed treatment 1.3 mg ai/seed, equivalent 72 gai/ha",6%
same,% reduction of corn damage 22 d after infestation,"[5]; Seed treatment 2.5 mg ai/seed, equivalent 144 gai/ha",13%
same,Donor % mortality,"[6]; 1% in peanut butter bait, 48 hours",100%
same,Recipient % mortality,[6]; 24 hours post introduction,97%
same,Recipient % mortality,[6]; 96 hours post introduction,100%
"CC1(C)[C@H](C(=O)O[C@H](C#N)c2cccc(Oc3ccccc3)c2)[C@@H]1/C=C(\Cl)C(F)(F)F [lambdacyhalothrin, Lambdacyhalothrin]",% reduction of corn damage 22 d after infestation,[7]; Foliar spray 22.4 gai/ha,81%
Spinetoram,% reduction of corn damage 22 d after infestation,[7]; Foliar spray 18 gai/ha,28%
